Like-named read-outs stand apart in the source and are kept apart here.
Columns and labels:
NUDT7 = target: T1, NUDT7 (Homo sapiens, UniProt P0C024); design: Intact protein LC/MS covalent labelling, fragments in pools of five, 200 uM each, 4 °C; conditions: 24 h, 4 °C, pool of five; 200 µM; covalent
T1 construct: residues 14-235, E. coli, pNIC28-Bsa4, N-terminal His6 tag removed by TEV, construct 26672 Da

PCAF = target: T2, PCAF (Homo sapiens, UniProt Q92831); design: Intact protein LC/MS covalent labelling, fragments in pools of five, 200 uM each, 4 °C; conditions: 24 h, 4 °C, pool of five; 200 µM; covalent
T2 construct: gene KAT2B

OTUB2 (OTUB2A) = target: T3, OTUB2 (OTUB2A) (Homo sapiens, UniProt Q96DC9); design: Intact protein LC/MS covalent labelling, fragments in pools of five, 200 uM each, 4 °C; conditions: 24 h, 4 °C, pool of five; 200 µM; covalent
T3 construct: full length residues 1-234, E. coli BL21(DE3)-R3, His tag removed by TEV, construct 27312 Da
T3 sequence (Q96DC9 1-234): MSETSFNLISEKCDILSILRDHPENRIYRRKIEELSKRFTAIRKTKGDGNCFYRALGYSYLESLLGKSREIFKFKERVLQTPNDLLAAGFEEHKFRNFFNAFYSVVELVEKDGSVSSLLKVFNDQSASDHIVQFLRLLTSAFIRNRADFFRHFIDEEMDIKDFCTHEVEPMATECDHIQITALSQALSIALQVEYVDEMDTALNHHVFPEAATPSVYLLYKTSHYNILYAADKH

BSA = target: T4, BSA (Bos taurus, UniProt P02769); design: Intact protein LC/MS covalent labelling, fragments in pools of five, 200 uM each, 4 °C; conditions: 24 h, 4 °C, pool of five; 200 µM; covalent
T4 construct: gene ALB

in vitro [1] = assay: in vitro; design: species or system HB2, CCD841; conditions: human, hek293 cells
in vitro [2] = assay: in vitro; design: species or system HB2, HEK293; conditions: human, ccd841 cells
in vitro [3] = assay: in vitro; design: species or system CCD841, HEK293; conditions: human, hb2 cells, read-out: HB-2 Cells Viability (%)

T1 sequence (P0C024 14-235): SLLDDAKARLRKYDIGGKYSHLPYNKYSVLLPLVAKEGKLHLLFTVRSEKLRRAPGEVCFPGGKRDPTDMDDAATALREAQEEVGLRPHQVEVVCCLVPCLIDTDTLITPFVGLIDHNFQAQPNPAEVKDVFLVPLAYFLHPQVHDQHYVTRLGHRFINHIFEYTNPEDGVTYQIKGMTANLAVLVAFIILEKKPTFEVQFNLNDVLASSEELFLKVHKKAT
T2 sequence (Q92831 whole entry, the tested form may be a part): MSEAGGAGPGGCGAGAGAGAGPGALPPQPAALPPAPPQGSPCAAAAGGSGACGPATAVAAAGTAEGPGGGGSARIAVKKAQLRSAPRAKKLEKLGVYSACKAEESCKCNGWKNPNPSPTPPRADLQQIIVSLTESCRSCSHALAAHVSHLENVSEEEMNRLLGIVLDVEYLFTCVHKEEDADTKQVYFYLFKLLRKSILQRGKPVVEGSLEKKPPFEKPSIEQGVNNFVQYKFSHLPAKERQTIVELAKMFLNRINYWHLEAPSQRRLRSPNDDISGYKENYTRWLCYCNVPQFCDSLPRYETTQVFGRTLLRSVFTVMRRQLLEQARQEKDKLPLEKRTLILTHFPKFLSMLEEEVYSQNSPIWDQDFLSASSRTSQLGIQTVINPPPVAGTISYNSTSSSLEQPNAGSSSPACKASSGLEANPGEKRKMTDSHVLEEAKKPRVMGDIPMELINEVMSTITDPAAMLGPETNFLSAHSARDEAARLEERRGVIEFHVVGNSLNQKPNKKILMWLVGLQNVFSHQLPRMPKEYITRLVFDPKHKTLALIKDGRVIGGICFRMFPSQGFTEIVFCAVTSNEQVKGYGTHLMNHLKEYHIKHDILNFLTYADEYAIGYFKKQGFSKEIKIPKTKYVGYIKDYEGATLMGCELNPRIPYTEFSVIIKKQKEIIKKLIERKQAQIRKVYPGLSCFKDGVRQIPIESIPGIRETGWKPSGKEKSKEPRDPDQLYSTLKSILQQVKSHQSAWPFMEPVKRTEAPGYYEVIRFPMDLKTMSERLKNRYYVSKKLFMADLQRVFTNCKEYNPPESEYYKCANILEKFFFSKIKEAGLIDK
T4 sequence (P02769 whole entry, the tested form may be a part): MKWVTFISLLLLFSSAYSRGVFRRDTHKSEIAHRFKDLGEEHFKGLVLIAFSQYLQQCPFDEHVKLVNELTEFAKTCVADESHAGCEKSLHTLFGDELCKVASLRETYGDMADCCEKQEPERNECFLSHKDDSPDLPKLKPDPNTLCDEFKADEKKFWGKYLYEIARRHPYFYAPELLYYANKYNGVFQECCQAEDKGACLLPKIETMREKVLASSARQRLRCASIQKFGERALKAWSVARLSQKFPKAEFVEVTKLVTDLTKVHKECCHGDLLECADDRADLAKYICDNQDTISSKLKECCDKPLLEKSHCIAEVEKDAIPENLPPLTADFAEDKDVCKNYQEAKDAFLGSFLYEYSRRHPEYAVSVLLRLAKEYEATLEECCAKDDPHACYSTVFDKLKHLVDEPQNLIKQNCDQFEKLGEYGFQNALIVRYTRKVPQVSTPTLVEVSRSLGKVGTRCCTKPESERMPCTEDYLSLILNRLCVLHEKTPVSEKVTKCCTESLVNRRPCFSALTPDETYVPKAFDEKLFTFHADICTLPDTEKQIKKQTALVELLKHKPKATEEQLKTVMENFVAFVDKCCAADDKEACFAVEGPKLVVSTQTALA

Compound | NUDT7 (NUDT7) | PCAF (PCAF) | OTUB2 (OTUB2 (OTUB2A)) | BSA (BSA) | viability at 48 h, 10 µM (in vitro [1]) [%] | viability at 48 h, 10 µM (in vitro [2]) [%] | viability at 48 h, 10 µM (in vitro [3]) [%]
O=C(CCl)NCc1nc2ccccc2s1 [PCM-0102803] | 0 | 0 | 0.37 | 0 | 43 | 63.8 | 55.2
C=CC(=O)N1CCN(C(=O)c2ccc(Br)o2)CC1 [PCM-0102804] | 0 | 0 | 0 | 0 | 84.7 | 102 | 93.5
C=CC(=O)N1CCN(c2cc(C)nc(C)n2)CC1 [PCM-0102806] | 0 | 0 | 0 | 0 | 78.9 | 105 | 101
C=CC(=O)N1CCCC2(CNC(=O)O2)C1 (stereo not drawn) [PCM-0102808] | 0 | 0 | 0.13 | 0 | 102 | 113 | 103
O=C(CCl)Nc1nc(-c2ccc(F)cc2)cs1 [PCM-0102809] | 0.37 | 0 | 0.21 | 0 | 1.7 | 63.1 | 5.1
CNC(=O)C1CCN(C(=O)CCl)CC1 [PCM-0102815] | 0 | 0 | 0.08 | 0 | 77.1 | 95.1 | 92.2
CC(C)(C)NC(=O)CNC(=O)CCl [PCM-0102817] | 0 | 0 | 0.41 | 0 | 101 | 87.5 | 102
O=C(CCl)NCC12CC3CC(CC(Br)(C3)C1)C2 [PCM-0102819] | 0.05 | 0 | 0.63 | 0 | 99.3 | 95 | 109
CC1CCc2ccccc2N1C(=O)CCl (stereo not drawn) [PCM-0102822] | 0 | 0 | 0 | 0 | 54.7 | 39.6 | 92.2
O=C(CCl)N1CCC2(CC1)OCCO2 [PCM-0102823] | 0 | 0 | 0 | 0 | 91.5 | 99.2 | 98.2
C=CC(=O)NCc1cccc(C(F)(F)F)c1 [PCM-0102825] | 0 | 0 | 0 | 0 | 82.3 | 107 | 97.4
O=C(CCl)N1CCCC2CCCCC21 (stereo not drawn) [PCM-0102826] | 0.07 | 0 | 0 | 0 | 27.9 | 32.5 | 33.7
COC(=O)C1(NC(=O)CCl)CCC(C)CC1 (stereo not drawn) [PCM-0102827] | 0 | 0 | 0 | 0 | 93.6 | 96.8 | 102
CCC1CCCCN1C(=O)CCl (stereo not drawn) [PCM-0102828] | 0.04 | 0 | 0 | 0 | 69.4 | 80.9 | 85.9
CC1CN(C(=O)CCl)CCO1 (stereo not drawn) [PCM-0102830] | 0 | 0 | 0 | 0 | 85.9 | 99.1 | 101
CC1CCN(C(=O)CCl)C2CCCCC12 (stereo not drawn) [PCM-0102831] | 0.37 | 0 | 0 | 0 | 5.6 | 6.8 | 14.7
O=C(CCl)N(C1CC1)C1CCS(=O)(=O)C1 (stereo not drawn) [PCM-0102832] | 0 | 0 | 0.43 | 0 | 67.9 | 85.1 | 88.7
CC(C)(C)N(Cc1cccc(F)c1)C(=O)CCl [PCM-0102833] | 0 | 0 | 0 | 0 | 22.2 | 25.3 | 67.5
C=CC(=O)NC(=O)NCc1ccccc1 [PCM-0102834] | 0.35 | 0 | 0 | 0 | 17.9 | 57.4 | 23
O=C(CCl)N1CCN(S(=O)(=O)c2ccc3ccccc3c2)CC1 [PCM-0102836] | 0 | 0 | 0 | 0 | 46.3 | 67.7 | 11.7
O=C(CCl)N1CCN(S(=O)(=O)c2ccccc2Cl)CC1 [PCM-0102837] | 0.18 | 0 | 0 | 0 | 6 | 46.9 | 4.7
CC(=O)c1sc(NC(=O)CCl)nc1C [PCM-0102838] | 0.12 | 0 | 0 | 0 | 87.2 | 92.1 | 96
C=CC(=O)NCc1ccc(F)cc1 [PCM-0102839] | 0 | 0 | 0 | 0 | 87.3 | 111 | 105
CN(C)c1ccc(Cl)cc1NC(=O)CCl [PCM-0102840] | 0.14 | 0.23 | 0.06 | 0 | 63.2 | 85.9 | 29.2
COC(=O)C1Cc2ccccc2CN1C(=O)CCl (stereo not drawn) [PCM-0102841] | 0.19 | 0 | 0.41 | 0 | 60.3 | 77.3 | 96.4
C=CC(=O)N1CC(C(=O)NC)C1 [PCM-0102843] | 0 | 0 | 0.1 | 0.23 | 94.1 | 114 | 104
C=CC(=O)N1CCC(N)CC1.Cl [PCM-0102844] | 0.2 | 0.25 | 0 | 0 | 124 | 98.2 | 109

— PMC6556873, “Rapid Covalent-Probe Discovery by Electrophile-Fragment Screening” (Journal of the American Chemical Society, 2019)
